# Experimental data as given in patent US20100111874A1, “METHOD OF CANCER DETECTION AND TREATMENT” (University of Medicine and Dentistry of New Jresey, priority 2007, published 2010).
# Legend:
# MCF7 breast cancer cells = test: MTT assay, CPT IC50; format: cell-based; conditions: Homo sapiens, 96 h, CPT continuously for 4 days
# Method: (§1) Cell survival assays. MTT assay: Cells (3000 cells/well) are plated in 96-well microtiter plates and incubated at 37° C. in a CO2 incubator. For determination of IC50, cells are treated with varying concentrations of CPT for four days. Cells are then incubated with MTT (3-(4,5-dimethylthiazol-2-yl)-2,5-diphenyltetrazolium bromide) for 4 hrs at 37° C. The dye produced by viable cells is dissolved in DMSO and the optical density measured at 570 nm. All assays are performed at least twice in six replicate wells. Clonogenic assay: Cells (100-500 cells/plate) are plated in 6-well tissue culture plates and incubated at 37° C. in a CO2 incubator. Cells are then treated with various concentrations of CPT for 1 hr. Following CPT treatment, cells are washed free of CPT and placed in fresh medium. After 10 days, survived colonies are stained with Methylene blue and counted using the Minicount machine. Cell counting assay: Logarithmically growing cells are treated with various concentrations of CPT for 1 hr. CPT is then removed by washing the plates with CPT-free medium four times. Washed cells are allowed to grow in CPT-free medium for 4 days. Cell survival is determined by counting cells using the Coulter counter after trypsinization.
# (§2) Example No. 6. […] Panel A, formation of cleavable complexes in MCF7 and MCF7/RC breast cancer cells. […]
# [1] = system: MCF7/RC breast cancer cells; test: MTT assay, CPT IC50; format: cell-based; conditions: Homo sapiens, 96 h; MCF7/RC low-level CPT-resistant clone; CPT continuously for 4 days
# Method: as §1, §2
smiles,measurement,setting,value
"CC[C@@]1(O)C(=O)OCc2c1cc1n(c2=O)Cc2cc3ccccc3nc2-1 [CPT, camptothecin]",IC50,MCF7 breast cancer cells,3.5 nM
same,IC50,[1],30 nM
